Numbers after ± are expanded uncertainties.
Tests used:
[1] = 101 kPa, Liquid
[2] = xn = mol fraction of the nth substance listed; details: 101 kPa, Liquid

CC(O)CO (stereo unspecified) [1,2-propanediol]
[1]
Details	mass density [kg/m3]
298.15 K	1032.5 ± 1.6
303.15 K	1029.2 ± 1.6
308.15 K	1025.3 ± 1.7
313.15 K	1021.5 ± 1.8
318.15 K	1018 ± 1.8
323.15 K	1014 ± 1.9
328.15 K	1010.2 ± 1.9
333.15 K	1006.2 ± 2

OCC(O)CO [glycerol]
[1]
Details	mass density [kg/m3]
298.15 K	1258.9 ± 2
303.15 K	1255.6 ± 2
308.15 K	1252.7 ± 2.1
313.15 K	1249.5 ± 2.1
318.15 K	1246.2 ± 2.2
323.15 K	1242.9 ± 2.3
328.15 K	1239.6 ± 2.3
333.15 K	1236 ± 2.4

OCCCO [propan-1,3-diol]
[1]
Details	mass density [kg/m3]
298.15 K	1049.9 ± 1.6
303.15 K	1047 ± 1.7
308.15 K	1044.1 ± 1.8
313.15 K	1040.8 ± 1.8
318.15 K	1037.8 ± 1.9
323.15 K	1034.8 ± 2
328.15 K	1031.4 ± 2
333.15 K	1028.2 ± 2.1

OCCCO [propan-1,3-diol] + OCC(O)CO
mass density [kg/m3], [2]
Details	x2 = 0	x2 = 0.0841	x2 = 0.1712	x2 = 0.2615	x2 = 0.3552	x2 = 0.4524	x2 = 0.5534	x2 = 0.6585	x2 = 0.7677	x2 = 0.8815
298.15 K	1049.9 ± 1.6	1067.8 ± 1.7	1086.4 ± 1.7	1105.7 ± 1.7	1125.6 ± 1.7	1146.4 ± 1.8	1167.6 ± 1.8	1189.3 ± 1.8	1212.6 ± 1.9	1235.2 ± 1.9
303.15 K	1047 ± 1.7	1065 ± 1.7	1083.5 ± 1.8	1103 ± 1.8	1122.8 ± 1.8	1143.4 ± 1.8	1164.6 ± 1.9	1186.4 ± 1.9	1209 ± 1.9	1232.1 ± 2
308.15 K	1044.1 ± 1.8	1062 ± 1.8	1080.6 ± 1.8	1100 ± 1.8	1119.8 ± 1.9	1140.6 ± 1.9	1161.8 ± 1.9	1183.5 ± 2	1206.1 ± 2	1229.3 ± 2
313.15 K	1040.8 ± 1.8	1058.8 ± 1.9	1077.5 ± 1.9	1096.9 ± 1.9	1116.8 ± 1.9	1137.3 ± 2	1158.7 ± 2	1180.4 ± 2	1203 ± 2.1	1226.1 ± 2.1
318.15 K	1037.8 ± 1.9	1055.7 ± 1.9	1074.5 ± 1.9	1093.9 ± 2	1113.7 ± 2	1134.3 ± 2	1155.6 ± 2.1	1177.2 ± 2.1	1199.7 ± 2.1	1222.8 ± 2.2
323.15 K	1034.8 ± 2	1052.7 ± 2	1071.4 ± 2	1090.9 ± 2	1110.7 ± 2.1	1131.2 ± 2.1	1152.5 ± 2.1	1174.1 ± 2.2	1196.6 ± 2.2	1219.8 ± 2.2
328.15 K	1031.4 ± 2	1049.3 ± 2	1068.1 ± 2.1	1087.6 ± 2.1	1107.5 ± 2.1	1127.8 ± 2.2	1149.2 ± 2.2	1170.8 ± 2.2	1193.4 ± 2.3	1216.6 ± 2.3
333.15 K	1028.2 ± 2.1	1046.1 ± 2.1	1064.9 ± 2.1	1084.4 ± 2.2	1104.1 ± 2.2	1124.6 ± 2.2	1145.9 ± 2.3	1167.5 ± 2.3	1190 ± 2.3	1213.3 ± 2.4

CCCO [propan-1-ol]
[1]
Details	mass density [kg/m3]
298.15 K	799.6 ± 1.2
303.15 K	795.5 ± 1.2
308.15 K	791.5 ± 1.3
313.15 K	787.3 ± 1.3
318.15 K	783.3 ± 1.4
323.15 K	779 ± 1.4
328.15 K	774.9 ± 1.5
333.15 K	770.8 ± 1.6

CCCO [propan-1-ol] + OCC(O)CO
[2], x2 = 0
Details	mass density [kg/m3]
298.15 K	799.6 ± 1.2
303.15 K	795.5 ± 1.2
308.15 K	791.5 ± 1.3
313.15 K	787.3 ± 1.3
318.15 K	783.3 ± 1.4
323.15 K	779 ± 1.4
328.15 K	774.9 ± 1.5
333.15 K	770.8 ± 1.6

CC(C)O [propan-2-ol]
[1]
Details	mass density [kg/m3]
298.15 K	780.6 ± 1.2
303.15 K	776.6 ± 1.2
308.15 K	772.3 ± 1.3
313.15 K	767.9 ± 1.3
318.15 K	763.3 ± 1.3
323.15 K	758.6 ± 1.4
328.15 K	753.8 ± 1.4
333.15 K	748.9 ± 1.5

CC(C)O [propan-2-ol] + OCC(O)CO
[2], x2 = 0
Details	mass density [kg/m3]
298.15 K	780.6 ± 1.2
303.15 K	776.6 ± 1.2
308.15 K	772.3 ± 1.3
313.15 K	767.9 ± 1.3
318.15 K	763.3 ± 1.3
323.15 K	758.6 ± 1.4
328.15 K	753.8 ± 1.4
333.15 K	748.9 ± 1.5

Source: the NIST ThermoML archive (doi:10.1021/je060496l)
